# According to ChEMBL document CHEMBL3885861, “Open TG-GATES”:
# Species on record: Rattus norvegicus
# Experiment: Open TG-GATES - Regimen: Single
# Type: toxicity, organism-based, Sprague-Dawley
# Design: regimen Single, gender Male, age 6 weeks
# Conditions: in vivo, po, 0 mg/kg, route gavage, dose level Control; for APTT / Bas / Eos / Fbg / Hb / Ht / Lym / MCH / MCHC / MCV / Mono / Neu / PT / Plat / RBC / Ret / WBC: tissue Blood; for KIDNEY_L / KIDNEY_R / KIDNEY_TOTAL: tissue Kidney; for LIVER: tissue Liver; for A/G / ALP / ALT / AST / BUN / CRE / Ca / Cl / DBIL / GLC / IP / K / LDH / Na / PL / RALB / TBIL / TC / TG / TP / gamma-GTP: tissue Plasma
smiles,measurement,setting,value
CC(=O)[C@@]1(O)CC[C@H]2[C@@H]3C=C(Cl)C4=CC(=O)CC[C@]4(C)[C@H]3CC[C@@]21C [CHLORMADINONE],TERMINAL_BW,3 h,219.1 g
same,APTT,3 h,23.2 s
same,Bas,3 h,0%
same,Eos,3 h,0.6%
same,Fbg,3 h,294.4 mg/dL
same,Hb,3 h,13.3 g/dL
same,Ht,3 h,41%
same,Lym,3 h,83.4%
same,MCH,3 h,20.4 pg
same,MCHC,3 h,32.3%
same,MCV,3 h,63.1 fL
same,Mono,3 h,2.2%
same,Neu,3 h,13.2%
same,PT,3 h,15.5 s
same,Plat,3 h,111.7 x10_4/uL
same,RBC,3 h,650.2 x10_4/ul
same,Ret,3 h,8%
same,WBC,3 h,78.7 x10_2/uL
same,KIDNEY_L,3 h,1 g
same,KIDNEY_R,3 h,1 g
same,KIDNEY_TOTAL,3 h,2 g
same,LIVER,3 h,10 g
same,A/G,3 h,1.2
same,ALP,3 h,1607 IU/L
same,ALT,3 h,42 IU/L
same,AST,3 h,77.8 IU/L
same,BUN,3 h,13.4 mg/dL
same,CRE,3 h,0.2 mg/dL
same,Ca,3 h,10.8 mg/dL
same,Cl,3 h,105.2 meq/L
same,DBIL,3 h,0 mg/dL
same,GLC,3 h,180 mg/dL
same,IP,3 h,8.1 mg/dL
same,K,3 h,4.3 meq/L
same,LDH,3 h,163.6 IU/L
same,Na,3 h,142.2 meq/L
same,PL,3 h,130.6 mg/dL
same,RALB,3 h,3 g/dL
same,TBIL,3 h,0.02 mg/dL
same,TC,3 h,71.8 mg/dL
same,TG,3 h,63.4 mg/dL
same,TP,3 h,5.4 g/dL
same,gamma-GTP,3 h,1.8 IU/L
same,TERMINAL_BW,6 h,216.7 g
same,APTT,6 h,23.8 s
same,Bas,6 h,0%
same,Eos,6 h,0.6%
same,Fbg,6 h,293.2 mg/dL
same,Hb,6 h,13.3 g/dL
same,Ht,6 h,41.1%
same,Lym,6 h,80.6%
same,MCH,6 h,20.6 pg
same,MCHC,6 h,32.3%
same,MCV,6 h,63.8 fL
same,Mono,6 h,2.8%
same,Neu,6 h,15.4%
same,PT,6 h,16.1 s
same,Plat,6 h,112 x10_4/uL
same,RBC,6 h,643.6 x10_4/ul
same,Ret,6 h,7.8%
same,WBC,6 h,116.8 x10_2/uL
same,KIDNEY_L,6 h,0.9 g
same,KIDNEY_R,6 h,1 g
same,KIDNEY_TOTAL,6 h,2 g
same,LIVER,6 h,9.2 g
same,A/G,6 h,1.2
same,ALP,6 h,1313.8 IU/L
same,ALT,6 h,40.8 IU/L
same,AST,6 h,74.6 IU/L
same,BUN,6 h,12.8 mg/dL
same,CRE,6 h,0.1 mg/dL
same,Ca,6 h,10.5 mg/dL
same,Cl,6 h,105.4 meq/L
same,DBIL,6 h,0 mg/dL
same,GLC,6 h,190.8 mg/dL
same,IP,6 h,9.3 mg/dL
same,K,6 h,4.4 meq/L
same,LDH,6 h,174.8 IU/L
same,Na,6 h,141.2 meq/L
same,PL,6 h,132.6 mg/dL
same,RALB,6 h,2.9 g/dL
same,TBIL,6 h,0.022 mg/dL
same,TC,6 h,73.2 mg/dL
same,TG,6 h,48.6 mg/dL
same,TP,6 h,5.3 g/dL
same,gamma-GTP,6 h,1.2 IU/L
same,TERMINAL_BW,9 h,217.4 g
same,APTT,9 h,23.3 s
same,Bas,9 h,0%
same,Eos,9 h,0.8%
same,Fbg,9 h,309.2 mg/dL
same,Hb,9 h,12.9 g/dL
same,Ht,9 h,39.8%
same,Lym,9 h,80%
same,MCH,9 h,20.5 pg
same,MCHC,9 h,32.3%
same,MCV,9 h,63.4 fL
same,Mono,9 h,2.6%
same,Neu,9 h,15.8%
same,PT,9 h,15.6 s
same,Plat,9 h,123.4 x10_4/uL
same,RBC,9 h,628 x10_4/ul
same,Ret,9 h,8.2%
same,WBC,9 h,100.7 x10_2/uL
same,KIDNEY_L,9 h,1 g
same,KIDNEY_R,9 h,1 g
same,KIDNEY_TOTAL,9 h,2 g
same,LIVER,9 h,9.4 g
same,A/G,9 h,1.3
same,ALP,9 h,1276.4 IU/L
same,ALT,9 h,36.8 IU/L
same,AST,9 h,70.2 IU/L
same,BUN,9 h,13.6 mg/dL
same,CRE,9 h,0.2 mg/dL
same,Ca,9 h,10.5 mg/dL
same,Cl,9 h,104.8 meq/L
same,DBIL,9 h,0 mg/dL
same,GLC,9 h,202.6 mg/dL
same,IP,9 h,9.6 mg/dL
same,K,9 h,4.1 meq/L
same,LDH,9 h,170 IU/L
same,Na,9 h,141.2 meq/L
same,PL,9 h,128.4 mg/dL
same,RALB,9 h,3 g/dL
same,TBIL,9 h,0.02 mg/dL
same,TC,9 h,70.4 mg/dL
same,TG,9 h,69.8 mg/dL
same,TP,9 h,5.3 g/dL
same,gamma-GTP,9 h,1.6 IU/L
same,TERMINAL_BW,24 h,233 g
same,APTT,24 h,23.5 s
same,Bas,24 h,0%
same,Eos,24 h,0.8%
same,Fbg,24 h,308.8 mg/dL
same,Hb,24 h,13.3 g/dL
same,Ht,24 h,40.9%
same,Lym,24 h,82.8%
same,MCH,24 h,20.5 pg
same,MCHC,24 h,32.5%
same,MCV,24 h,63.1 fL
same,Mono,24 h,2.2%
same,Neu,24 h,13.4%
same,PT,24 h,15.9 s
same,Plat,24 h,115.3 x10_4/uL
same,RBC,24 h,649.2 x10_4/ul
same,Ret,24 h,7.8%
same,WBC,24 h,120.1 x10_2/uL
same,KIDNEY_L,24 h,1 g
same,KIDNEY_R,24 h,1 g
same,KIDNEY_TOTAL,24 h,2 g
same,LIVER,24 h,11 g
same,A/G,24 h,1.2
same,ALP,24 h,1565 IU/L
same,ALT,24 h,45.4 IU/L
same,AST,24 h,73.6 IU/L
same,BUN,24 h,17.8 mg/dL
same,CRE,24 h,0.2 mg/dL
same,Ca,24 h,10.9 mg/dL
same,Cl,24 h,105.4 meq/L
same,DBIL,24 h,0 mg/dL
same,GLC,24 h,197.8 mg/dL
same,IP,24 h,7.3 mg/dL
same,K,24 h,4.7 meq/L
same,LDH,24 h,219 IU/L
same,Na,24 h,140.6 meq/L
same,PL,24 h,166 mg/dL
same,RALB,24 h,3 g/dL
same,TBIL,24 h,0.01 mg/dL
same,TC,24 h,85 mg/dL
same,TG,24 h,115 mg/dL
same,TP,24 h,5.5 g/dL
same,gamma-GTP,24 h,1 IU/L
